From patent US10440975B2, “Feed additive composition for reducing methane gas produced by ruminant animals” (CJ CHEILJEDANG CORPORATION, priority 2014, dated 2019)

Tested on: rumen fluid
Assay: Rumen simulation continuous culture system (RSCC): methane production, pH, digestibility
Assay type: cell-based
Conditions: vs control group
Protocol: 0.12 mL of a micromineral solution was added to 250 mL of distilled water in an 2 L of Erlenmeyer flask and stirred. Another 250 mL of distilled water was added, and then stirred for 20 minutes. Then, 250 mL of an in vitro buffer solution was added and stirred for 10 minutes. Then, 250 mL of a macromineral solution was added and stirred for 15 minutes. Then, 1.25 mL of a resazurin solution was added to the mixture and stirred. Then, the flask was sealed with aluminum foil and heated while maintaining an anaerobic condition by bubbling CO2 gas in a Hungate anaerobic culture tube. When the solution started boiling, the solution was heated for 10 more minutes and then cooled down. 50 mL of a reduction solution was added to the cooled solution to obtain a buffer.
A sampled rumen fluid was first filtered through eight-layer gauze and then through glass wool. The filtered rumen fluid was maintained in an anaerobic condition by CO2 bubbling. While maintaining the anaerobic condition by CO2 bubbling, the buffer solution prepared in 1) above was mixed with the rumen fluid (250 mL of the rumen fluid, 600 mL of the buffer solution).
10 g of a substrate was added to a fermenter. The buffer solution prepared in 1) was added into a buffer bag while maintaining the anaerobic condition. A Tedlar bag filled with CO2 gas was connected to the buffer bag, and a tube connected to the buffer bag was connected to a buffer inlet port of the fermenter lid. Then a tube connected to a gas collecting bag was connected to a gas collecting port of the fermenter lid (a tube for gas was used). A pH probe and a temperature probe were placed deep enough to reach the culture medium while not touching the impellers. In the meantime, a feed inlet tube was placed deep enough to reach the culture medium through the feeding port of the fermenter lid. The fermenter lid was then connected to the fermenter and an anaerobic condition inside the fermenter was maintained by using vacuum grease and Teflon tape. CO2 gas was introduced into the fermenter through the gas collecting port for about 10 minutes (making the inside of the fermenter anaerobic, continuously introducing CO2 gas until the initiation of cultivation). All joint connections were sealed with vacuum grease and Teflon tape. Once all devices were installed, a peristaltic pump was activated and the buffer solution was introduced into the fermenter. The anaerobic culture medium was introduced into the fermenter until it overflowed, and then the CO2 gas introduction into the fermenter was discontinued and all inlet ports were sealed. The fermenter was then connected to a circulator, and cultivation started at 39° C. with a stirring speed between 99 rpm and 102 rpm. The pH of the culture medium of the fermenter was between 6.8 and 7.1, and a temperature was maintained at between 39° C. and 40° C. A turnover rate of the culture medium was stabilized at 0.042 h^−1 while a turnover rate of the substrate was stabilized at 0.017 h^−1.
Below is an experiment on reduction of methane production conducted in accordance with the above operation method using the RSCC system of 3) of Preparation Example. A feed additive for reducing methane was added with the substrate when the substrate was added.
The RSCC system was operated for five days of adjustment, and then total gas production, methane production, and pH values of the control group were measured for three days. After the measurements of the control group were completed, DADS was added at ratios of 0.1 wt %, 0.2 wt %, and 0.4 wt % per 10 g of a substrate, and then total gas production, methane production, and pH values were measured at the same time for another three days. The methane reduction rate was measured after having an adjustment period with a newly sampled rumen fluid every time one additive examines.

[1] = additive 0.1 wt % per 10 g of substrate
[2] = additive 0.5 wt % per 10 g of substrate

| Compound | Methane Reduction (%) [1] [%] | Methane Reduction (%) (additive 0.2 wt % per 10 g of substrate) | Methane Reduction (%) [2] [%] | Methane Reduction (%) (additive 0.35 wt % per 10 g of substrate) | Methane Reduction (%) (additive 1.0 wt % per 10 g of substrate) |
| --- | --- | --- | --- | --- | --- |
| COc1ccc2cc3[n+](cc2c1OC)CCc1cc2c(cc1-3)OCO2 [Berberine, 5,6-dihydro-9,10-dimethoxybenzo[g]-1,3-benzodioxolo[5,6-a]quinolizinium] | 6.7 | 12.4 | 45.5 | – | – |
| C=CCSSCC=C [DADS, 4,5-dithia-1,7-octadiene diallyldisulfide] | 30.5 | – | – | – | – |
| O=[N+]([O-])O [Nitrate] | – | – | 31.0 | 14.0 | 8.1 |
| ((2R)-2-amino-3-[(S)-prop-2-enylsulfinyl] propanoic acid [Alliin] | – | – | 21.9 | – | – |
